Source: patent US20190134000A1, “COMPOUNDS TO PROMOTE NORMAL PROCESSING OF APP” (Buck Institute for Research on Aging, priority 2016, published 2019)
In brackets after ≈: the same amount, converted by molar mass. Entries after “also recorded” stand apart in the source; their conditions may differ. Read-outs that look alike come from different tables or passages of the source.

Key:
S9 stability, guinea pig = type: in vitro ADME
[1] = Acute non-GLP toxicity study, oral 450 mg/kg; type: in vivo, rats; conditions: for concentration at 24 h: rat, in vivo
Procedure: Acute non-GLP toxicity study was performed using an oral dose of 450 mg/kg. At 24 hours post-dosing, brain levels were 2924 ng/g and plasma levels were 115 ng/ml.

S9 stability, dog = type: in vitro ADME
B254 mice = assay: C41 lead confirmation in B254 mice; type: in vivo; conditions: 4 weeks oral 4 mkd
Text: FIG. 15 illustrates the result of C41 lead confirmation in B254 mice. Panel A: Novel Location Recognition; Panel B: Novel Object Recognition; Panel C: sAPPα; Panel D: Aβ40; Panel E: Aβ42; Panel F: p-tau/tau.

AD mouse model = assay: Synaptic load, synaptophysin labeling of hippocampus; type: in vivo
Procedure: FIG. 16 illustrates mechanistic confirmation studies for determination of synaptic load.
Mechanistic confirmation studies for determination of synaptic load were performed using antibody-labeling of synaptophysin with a green fluorescent tag. […] The improvements in NLR and NOR may be correlated to the restoration of synaptic load, increases in sAPPα or the sAPPα/sAPPβ ratio; increases in the sAPPα/Aβ1-42 ratio; decreases in the p-tau/tau ratio, and/or decreases in APPneo (c-terminal cleavage).

CYP1A2 = target: T1, CYP1A2 (Homo sapiens, UniProt P05177); assay: CYP inhibition screen CYP1A2; type: in vitro ADME
T1 sequence (P05177 1-516): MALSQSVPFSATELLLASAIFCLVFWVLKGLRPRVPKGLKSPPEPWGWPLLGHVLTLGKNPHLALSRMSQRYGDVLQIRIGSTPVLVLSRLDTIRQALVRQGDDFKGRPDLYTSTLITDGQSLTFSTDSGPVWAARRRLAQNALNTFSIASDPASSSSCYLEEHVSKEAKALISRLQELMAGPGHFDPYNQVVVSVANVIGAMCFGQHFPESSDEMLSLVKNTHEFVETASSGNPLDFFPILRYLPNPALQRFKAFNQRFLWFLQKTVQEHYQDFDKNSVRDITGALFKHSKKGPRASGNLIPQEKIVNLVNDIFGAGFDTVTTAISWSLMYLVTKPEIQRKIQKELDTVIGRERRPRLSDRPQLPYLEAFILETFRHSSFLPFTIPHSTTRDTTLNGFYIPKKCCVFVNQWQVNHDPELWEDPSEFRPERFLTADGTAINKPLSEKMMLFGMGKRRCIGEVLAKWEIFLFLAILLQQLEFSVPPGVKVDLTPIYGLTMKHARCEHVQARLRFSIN

CYP3A4 = CYP3A4 (Homo sapiens, UniProt P08684); assay: CYP inhibition screen CYP3A4; type: in vitro ADME; conditions: for inhibition at 10 µM / inhibition at 30 µM: human
S9 stability, monkey = type: in vitro ADME
S9 stability, human = type: in vitro ADME
[2] = Panel binding test (Cerep broad screening panel)
5-HT3 = target: T2, 5-HT3 (Homo sapiens, UniProt P46098); assay: Target binding 5-HT3
T2 sequence (P46098 24-478): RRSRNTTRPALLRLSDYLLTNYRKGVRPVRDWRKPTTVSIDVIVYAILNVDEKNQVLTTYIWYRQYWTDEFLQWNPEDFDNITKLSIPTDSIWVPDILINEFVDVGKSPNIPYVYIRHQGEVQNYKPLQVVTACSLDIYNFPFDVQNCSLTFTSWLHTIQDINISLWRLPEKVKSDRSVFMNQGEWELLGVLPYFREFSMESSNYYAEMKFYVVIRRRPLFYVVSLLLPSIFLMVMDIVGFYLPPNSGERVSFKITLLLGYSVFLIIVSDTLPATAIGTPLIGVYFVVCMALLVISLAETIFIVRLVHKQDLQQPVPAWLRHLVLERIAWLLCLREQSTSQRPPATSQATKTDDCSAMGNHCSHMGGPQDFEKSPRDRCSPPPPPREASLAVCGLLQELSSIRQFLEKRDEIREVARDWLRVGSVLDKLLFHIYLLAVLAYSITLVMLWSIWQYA

S9 stability, mouse = type: in vitro ADME
[3] = system: muscarinic acetylcholine receptors; assay: Muscarinic receptor binding in panel; conditions: panel binding test
AD model mice = assay: Oral efficacy studies in mice; type: in vivo
Text: Thus, C41 was identified as a good new chemical entity (NCE) based on the testing. In particular C41 in vitro and in vivo profile met the advancement criteria in SH-SYSY and CHO-7W in vitro screens.

CYP2C19 = CYP2C19 (Homo sapiens, UniProt P33261); assay: CYP inhibition screen CYP2C19; type: in vitro ADME
[4] = system: sAPPα, Aβ1-42 in CHO-7W cells; assay: Secondary screen, sAPPα and Aβ in CHO-7W cells; type: cell-based
Text: Compound C41 was initially identified by screening a library of compounds in a series of steps. First compounds were screened in a primary screen to determine the effect on sAPPα in SH-SYSY cells (see, e.g., FIG. 4). Compounds that elicited an increase in sAPPα of at least 10% were subjected to a secondary screen in CHO-7W cells for their effect on sAPPα and Aβ (see, e.g., FIG. 5).

Chain of CYP3A4 (P08684 whole entry): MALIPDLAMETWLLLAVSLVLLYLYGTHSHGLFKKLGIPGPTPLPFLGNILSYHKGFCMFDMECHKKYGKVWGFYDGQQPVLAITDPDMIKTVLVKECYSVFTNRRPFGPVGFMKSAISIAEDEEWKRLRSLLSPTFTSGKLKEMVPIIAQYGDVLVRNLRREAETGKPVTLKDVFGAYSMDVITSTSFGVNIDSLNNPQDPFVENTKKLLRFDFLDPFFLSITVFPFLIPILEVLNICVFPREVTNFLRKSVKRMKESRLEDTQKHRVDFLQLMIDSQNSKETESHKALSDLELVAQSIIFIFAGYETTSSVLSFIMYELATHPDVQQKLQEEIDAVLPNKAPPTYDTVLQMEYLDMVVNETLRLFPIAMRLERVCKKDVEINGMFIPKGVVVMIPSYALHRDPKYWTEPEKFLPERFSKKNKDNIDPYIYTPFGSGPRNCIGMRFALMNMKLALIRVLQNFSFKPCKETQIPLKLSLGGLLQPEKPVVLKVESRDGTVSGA
Chain of CYP2C19 (P33261 whole entry): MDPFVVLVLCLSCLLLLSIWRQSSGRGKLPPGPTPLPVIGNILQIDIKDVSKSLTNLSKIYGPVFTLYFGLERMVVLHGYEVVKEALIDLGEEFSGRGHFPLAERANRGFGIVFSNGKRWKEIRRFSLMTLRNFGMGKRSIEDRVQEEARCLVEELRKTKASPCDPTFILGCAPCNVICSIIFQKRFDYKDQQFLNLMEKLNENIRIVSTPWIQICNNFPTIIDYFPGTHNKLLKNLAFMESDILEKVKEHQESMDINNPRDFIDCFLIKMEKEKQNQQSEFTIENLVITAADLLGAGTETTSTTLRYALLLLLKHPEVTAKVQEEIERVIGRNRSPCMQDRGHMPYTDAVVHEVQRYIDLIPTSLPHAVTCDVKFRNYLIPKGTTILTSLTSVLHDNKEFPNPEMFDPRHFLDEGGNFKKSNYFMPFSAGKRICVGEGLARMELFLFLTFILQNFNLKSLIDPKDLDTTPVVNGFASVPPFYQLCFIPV

CN1[C@@H]2CC[C@H]1C[C@@H](OC(=O)c1c[nH]c3cc(F)ccc13)C2 [Compound C41, (1R,3R,5S)-8-methyl-8-azabicyclo[3.2.1]octan-3-yl 6-fluoro-1H-indole-3-carboxylate]
Metabolic Half-Life Guinea Pig S9 (S9 stability, guinea pig): >1 h | half-life (S9 stability, guinea pig): > 1 h | acute toxicity finding ([1]; oral 450 mg/kg, likely due to the corn syrup vehicle): some dilation of the vessels on the surface of the intestine | concentration at 24 h ([1]; po, 450 mg/kg): 115 ng/mL | concentration at 24 h ([1]; oral 450 mg/kg, 24 hours post-dosing, read-out: brain levels): 2920 ng/g | half-life (S9 stability, dog): 0.668 h | Aβ40 (B254 mice): trend for Aβ40 and 42 to decrease | Aβ42 (B254 mice): trend for Aβ40 and 42 to decrease | novel location recognition (B254 mice): some improvement | novel object recognition (B254 mice): significant improvement | p-Tau/Tau ratio (B254 mice): significantly decreased | synaptic load / synaptic density in hippocampus (AD mouse model): restore synaptic density; also recorded: restored synaptic load | IC50 (CYP1A2): > 30 µM | inhibition at 10 µM (CYP1A2; human): 0.35% | inhibition at 30 µM (CYP1A2; human): 0.33% | IC50 (CYP3A4): > 30 µM | inhibition at 10 µM (CYP3A4; CYP3A4 midazolam inhibition): 3.1% | inhibition at 30 µM (CYP3A4; CYP3A4 midazolam inhibition): 3.8% | inhibition at 10 µM (CYP3A4; CYP3A4 testosterone inhibition): 5.2% | inhibition at 30 µM (CYP3A4; CYP3A4 testosterone inhibition): 2.5% | Metabolic Half-Life Monkey S9 (S9 stability, monkey): >1 h | half-life (S9 stability, monkey): > 1 h | Metabolic Half-Life Human S9 (S9 stability, human): >1 h | half-life (S9 stability, human): > 1 h | profile in panel binding test / activity in broad screening panel [2]: clean profile; also recorded: Overall clean | Kd (5-HT3): ~0.003 µM | Target 5-HT3 (5-HT3; target binding): 5 nM | Metabolic Half-Life Mouse S9 (S9 stability, mouse): >1 h | half-life (S9 stability, mouse): > 1 h | binding to muscarinic acetylcholine receptors [3]: only weak binding; also recorded: profile. Some | efficacy in dose-response studies (AD model mice; mice): Efficacy was seen | efficacy in 4-week standard oral study (AD model mice; mice, oral, 4 weeks): Efficacy was seen | efficacy in 12-week study (AD model mice; old AD model mice with advanced pathology): efficacy was seen | IC50 (CYP2C19): > 30 µM | inhibition at 10 µM (CYP2C19; human): 0% | inhibition at 30 µM (CYP2C19; human): 0% | solubility (physchem): 80 mM (≈ 24.2 mg/mL) | solubility (physchem; water): 85 mM (≈ 25.7 mg/mL) | Secondary Screen (CHO-7W) sAPPα ([4]; ↑ increase): ↑>20% | Secondary Screen (CHO-7W) sAppα/Aβ ([4]; ↑ increase of ratio): ↑>50% | Secondary Screen (CHO-7W) Aβ1-42 ([4]; ↓ decrease): ↓>20%
